From US10287259B2, “Selenazolidine and thiazolidine compounds for treating cancer and other diseases” (The Penn State Research Foundation, priority 2016, dated 2019)

What was measured:
Assay type in all cases: cell-based
[1] = test system: Panc-1 cells; experiment: Live/dead assay with calcein-AM and ethidium bromide; details: Panc-1, 48 h; AS-10 2.5 μM, gemcitabine 50 μM
Experimental: To determine the dead cell population, we used LIVE/DEAD Viability/Cytotoxicity Kit (L3224, Life technologies, USA). Panc-1 cells were treated with either DMSO, gemcitabine (50 μM), or AS-10 (2.5 μM) or in combination for 48 h. Live and dead cells were determined by subjecting treated cells to LIVE/DEAD Viability/Cytotoxicity Kit (Plano et al., 2016, J. Med. Chem. 1946-1959). […] While ethidium homodimer-1 can only enter cells who have lost their plasma membrane integrity or dead cells and fluorescents red. Stained cells were visualized using a fluorescence microscope (Zeiss—Axio Scope.A1) with a 20× objective lens. Percentage values of live and dead cells were calculated.

[2] = test system: prostate cancer cells (LnCAP, PC-3 and DU-145); experiment: Apoptosis in prostate cancer cells
[3] = test system: NCI-60 Human Tumor Cell Lines; experiment: NCI-60 Human Tumor Cell Lines Screen
Experimental: AS-10 was submitted for National Cancer Institute's (NCI) Division of Cancer Treatment and Diagnosis (DCTD) for a single dose (10 μM for 72 h) screening on 60 different cancer cell lines (NCI-60 Human Tumor Cell Lines Screen, Developmental Therapeutic Program). The panel of cell lines included leukemia, non-small cell lung, colon, CNS, melanoma, ovarian, renal, prostate and breast cancer cell lines. […] AS-10 was screened against the same 60 cell lines at a dose of 0, 0.01, 0.1, 1, 10 and 100 μM for 72 h. […] Cell lines are grouped by the cancer type they represent. […] FIG. 16 is the tabular format of the effects of AS-10 on growth of all the tested cell lines.

[4] = test system: different cancer cell types (breast, colorectal, lung, melanoma, ovarian, prostate); experiment: MTT assay in different cancer cell lines; details: 24, 48 and 72 h
Experimental: (§1) MTT (3-(4,5-dimethylthiazol-2-yl)-2,5-diphenyltetrazolium) assay was performed to determine the effect of AS-10 on cancer cell viability (Plano et al., 2016, J. Med. Chem. 1946-1959; Alcolea et al., 2012, Eur. J. Med. Chem. 113:134-144; Kumar et al., 2014, Eur. J. Med. Chem. 81:267-276). Briefly, 3×10^3 cells were treated with different concentrations of AS-10 in triplicate in a 96-well plate for different time points. MTT solution (20 μL of 5.0 mg/mL solution) was added to each well, three hours prior to termination time point and incubated at 37° C. Resultant formazan crystals, at termination time point, were dissolved in 50 μL DMSO. The plate was subjected to a 96-well multiscanner (Dynex Technologies, MRX Revelation; Chantilly, Va., USA) for measuring the optical densities at 570 nm and 630 nm. IC50 values were determined by performing non-linear regression using Graphpad Prism software.

[5] = test system: NF-κB p65; experiment: Immunocytochemistry for NF-κB p65 localization; details: Panc-1, 10 μM 6 h, TNF-α 30 min
Experimental: Immunocytochemistry was used to determine the translocation of p65 from cytoplasm to nucleus in presence of inflammatory stimuli either with vehicle or AS-10 (10 μM). In a 12 well plate, Panc-1 cells (1.6×10^5) were seeded on top of a small cover slip in DMEM medium. Cells were allowed to attach to the cover slip overnight at 37° C. incubator with 5% CO2. The next day, cells were treated with 10 μM AS-10 for 6 h and further stimulated with TNF-α (100 ng/mL, 3.9 nM) for 30 min. Exactly after 30 min plates were kept on ice and cells were fixed with 4% Formaldehyde Solution made in PBS for 15 min. Cells were washes three times with 1×PBS, followed by 1 h incubation in blocking medium (0.3% Triton X-100, 5% donkey serum, made in 1×PBS) at room temperature in dark. After blocking coverslips were incubated with primary antibody solution (primary antibody diluted 1:500 in 1% BSA solution containing 0.3% Triton X-100) over night at 4° C. Next day, primary antibody was removed and cover slips were washed three times with 1×PBS. Following incubation with 0.03% H2O2 for 15 minutes at room temperature in dark. After the incubation, secondary antibody (Alexa fluor 680) was added at dilution of 1:500 in 1% BSA containing 0.3% triton X-100 and further incubated for 1 hr. […]

[6] = test system: Panc-1 cells; experiment: Colony formation assay; details: 48 h treatment, colonies for 17 days
Experimental: Crystal violet staining method was utilized for performing colony formation assay (Franken et al., 2006, Nat. protoc. 1:2315-2319). In brief, Panc-1 cells were treated with vehicle control (DMSO). 2.5 μM or 10 μM of AS-10 for 48 h. After 48 h treatment period, cells were trypsinized and live cells were counted using tryphan blue dye exclusion assay. Tissue culture plates of size 60×15 mm were seeded with 100 live cells from vehicle treated and 5000 live cells from AS-10 treated cells. Cells were allowed to form colonies for 17 days in DMEM free from DMSO or AS-10 at 37° C. in a 5% CO2 chamber. After 17 days' colonies were stained with 0.5% alcoholic crystal violet. Percentage Plating efficiency (PE) was calculated by the formula: % PE=number of colonies*100/number of cells plated. Data plotted as % relative PE.

[7] = test system: pancreatic cancer cells; experiment: MTT cell viability assay, pancreatic cancer (PC) cells; details: Pancreatic cancer cell
Experimental: as §1

[8] = test system: Panc-1 cells; experiment: MTT cell viability assay, Panc-1; details: for IC50: Homo sapiens
Experimental: as §1
To test the anti-cancer activity of AS-10 in pancreatic cancer (PC) cell lines, a MTT assay was performed. PC cell lines, Panc-1 and BxPC3, were treated with AS-10 at different doses at different time points (24, 48, and 72 h). Resulting cells were subjected to MTT cell viability assay. […] Panc-1 cells were treated with different doses of AS-10 for 48 h. After 48 h, live cells were counted and plated in a new petri dish. Cells were allowed to form colonies for 17 days. At the end of 17 days the colonies were counted and compared to the untreated cells.

Q: Which dead cells [1] does the source give for CC(=O)Oc1ccccc1C(=O)/N=C1\[Se]CCN1C(=O)c1ccccc1OC(C)=O [AS-10, 2-((3-(2-acetoxybenzoyl)-1,3-selenazolidin-2-ylidene)carbamoyl)phenyl acetate] here?
A: Its dead cells is ~10%.

Q: And the “Annexin V staining, caspase 3/7 activity, and PARP cleavage” value ([2]; LNCaP)?
A: Its value is “increased”.

Q: And the “apoptosis induction in prostate cancer cells” value ([2]; LnCAP, PC-3 and DU-145)?
A: Its value is “effective at inducing apoptosis in all prostate cancer cells tested”.

Q: And the “selectivity among NCI-60 cell types” value ([3]; 0.01-100 μM, 72 h)?
A: Its value is “most cytotoxic towards CNS, melanoma and renal cancer cell lines”.

Q: What about the “cell growth of NCI-60 cell lines” value ([3]; single dose 10 μM for 72 h) of the same compound?
A: The value was “inhibited cell growth of all 60 cell lines”.

Q: And the “growth of different cancer cell types” value [4]?
A: Its value is “effectively inhibited growth”.

Q: What about the “translocation of p65 to the nucleus” value [5] of the same compound?
A: The value was “unable to translocate to the nucleus”.

Q: What about the “colonies formed compared to vehicle treated cells” value [6] of the same compound?
A: The value was “effectively decreased the amount of colonies formed”.

Q: And the EC50 ([7]; in vitro, read-out: EC50, reduction of PC cell growth)?
A: Its EC50 is 2500 to 5000 nM.

Q: And the IC50 ([7]; read-out: IC50, cytotoxicity to pancreatic cancer cells)?
A: The IC50 was 500 to 2500 nM.

Q: What about the IC50 ([8]; PANC-1, 48 h) of the same compound?
A: The IC50 was 1000 to 2500 nM.

Q: What about the IC50 ([8]; Panc-1, different time points (24, 48, 72 h)) of the same compound?
A: Its IC50 is 1000 to 5000 nM.

Q: And the “potency relative to gemcitabine” value ([8]; Panc-1, 48 h)?
A: Its value is > 500 times.
